Measured values reported in paper PMC3586229 (Bioorganic & medicinal chemistry letters, 2012).

Type: physicochemical
Conditions: for Stability in aqueous solution (MS, time course): DMSO solution diluted 1 to 1000 in water, followed over 24 h

| SMILES | Stability in aqueous solution (MS, time course) | Stability in buffer solution (buffer solution, pH 7.4) |
| --- | --- | --- |
| CC(C)C[C@H](NC(=O)OCc1ccccc1)C(=O)N[C@H](C=O)CC1CCNC1=O (stereo partly drawn) [Compound 6a] | the hydrated form was the dominant species after only five minutes exposure to water |  |
| CC(C)C[C@H](NC(=O)OCc1ccccc1)C(=O)N[C@@H](CC1CCNC1=O)C(O)S(=O)(=O)[O-].[Na+] (stereo partly drawn) [Compound 7a] | remains unchanged as the bisulfite form after 24 h | gradually dissociates into the corresponding aldehyde 6a within an hour |
